In this assay the target is human chemokine receptor CXCR7 (Homo sapiens (Human), UniProt P25106). As to the kind of experiment: Tango CXCR7-bla U2OS beta-arrestin recruitment assay (beta-lactamase reporter, FRET), antagonism of CXCL12/SDF1-α.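 Also: compounds preincubated 15 min before CXCL12 addition, then 22 h at 37 °C, FRET emission ratio read with CCF4-AM substrate after 2 h.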 Type of assay: cell-based. Particulars: antagonistic effect on CXCR7; Tango CXCR7-bla U2OS cells, CXCL12/SDF1-α at its EC80. (In general: Recruitment of arrestin is a read-out of receptor activation apart from second messengers.)
human chemokine receptor CXCR7, sequence (P25106 whole entry): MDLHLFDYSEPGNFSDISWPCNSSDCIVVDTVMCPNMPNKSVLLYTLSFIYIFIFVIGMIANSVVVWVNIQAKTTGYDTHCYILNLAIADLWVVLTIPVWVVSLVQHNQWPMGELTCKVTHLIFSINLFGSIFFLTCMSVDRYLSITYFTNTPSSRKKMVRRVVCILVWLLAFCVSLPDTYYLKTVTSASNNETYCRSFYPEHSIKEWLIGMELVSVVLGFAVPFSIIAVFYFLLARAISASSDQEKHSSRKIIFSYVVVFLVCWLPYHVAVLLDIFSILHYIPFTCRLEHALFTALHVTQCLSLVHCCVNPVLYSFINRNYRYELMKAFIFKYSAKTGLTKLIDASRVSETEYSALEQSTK
A word on the IC50: it is the concentration that inhibits the measured activity by half. A lower IC50 goes with inhibition by little substance. Compound `O=C(N[C@@H]1CCN(CC2CC2)C[C@H]1C(=O)NC1(c2ccccn2)CC1)c1cn(-c2ccc(F)cc2F)nn1` (racemic) [Example 1.167, rac-(3R*,4R*)-1-Cyclopropylmethyl-4-{[1-(2,4-difluoro-phenyl)-1H-[1,2,3]triazole-4-carbonyl]-amino}-piperidine-3-carboxylic acid (1-pyridin-2-yl-cyclopropyl)-amide] yielded an IC50 of 134 nM.

For `C[C@@H]1CCC[C@H]1N1CC[C@@H](NC(=O)c2cc(-c3ccc(F)cc3F)on2)[C@H](C(=O)N(C)C)C1` [Example 2.023], the IC50 is 37 nM.

For the compound `CN(C)C(=O)[C@@H]1CN(Cc2ccn(C)c2)CC[C@H]1NC(=O)c1cc(-c2ccc(F)cc2F)on1` [Example 2.085], inhibition was half-maximal at 179 nM (IC50).

On to `CN(C)C(=O)[C@@H]1CN(Cc2ccccc2Cl)CC[C@H]1NC(=O)c1cc(-c2ccc(F)cc2F)on1` [Example 2.082], for which the IC50 turned out to be 342 nM.

On to `CN(C)C(=O)[C@@H]1CN(C2CCCCC2)CC[C@H]1NC(=O)c1cc(-c2ccc(F)cc2)on1` (racemic) [Example 3.002, rac-(3R*,4R*)-1-Cyclohexyl-4-{[5-(4-fluoro-phenyl)-isoxazole-3-carbonyl]-amino}-piperidine-3-carboxylic acid dimethylamide], for which it took 435 nM to reach half-maximal inhibition (IC50).

In turn, `CCN(C)C(=O)[C@@H]1CN(C2CCCC2)CC[C@H]1NC(=O)c1cc(-c2ccc(F)cc2F)on1` [Example 2.076] registered an IC50 of 71 nM.

For `O=C(N[C@@H]1CCN(C2CCCCC2)C[C@H]1C(=O)Nc1cccnc1)c1cc(-c2ccc(F)cc2F)on1` (racemic) [Example 1.067, rac-(3R*,4R*)-1-Cyclohexyl-4-{[5-(2,4-difluoro-phenyl)-isoxazole-3-carbonyl]-amino}-piperidine-3-carboxylic acid pyridin-3-ylamide], the IC50 is 319 nM.

With `CCN(C)C(=O)[C@@H]1CN(CC2CC2)CC[C@H]1NC(=O)c1cc(-c2ccc(F)cc2F)on1` [Example 2.077], the IC50 was found to be 112 nM.

For the compound `O=C(N[C@H]1CCN(C2CCCC2)C[C@@H]1C(=O)NC1(c2ccccn2)CC1)c1cc(-c2c(F)cc(F)cc2F)on1` (single isomer, unassigned) [Example 1.170a, (3S,4S)-1-Cyclopentyl-4-{[5-(2,4,6-trifluoro-phenyl)-isoxazole-3-carbonyl]-amino}-piperidine-3-carboxylic acid (1-pyridin-2-yl-cyclopropyl)-amide or (3R,4R)-1-Cyclopentyl-4-{[5-(2,4,6-trifluoro-phenyl)-isoxazole-3-carbonyl]-amino}-piperidine-3-carboxylic acid (1-pyridin-2-yl-cyclopropyl)-amide], half-maximal inhibition (IC50) was put at 33 nM.

In turn, `CN(C)C(=O)[C@@H]1CN(C2CC3(CCC3)C2)CC[C@H]1NC(=O)c1cc(-c2ccc(F)cc2F)on1` [Example 2.025] displayed an IC50 of 435 nM.

Compound `O=C(N[C@H]1CCN(CC2CC2)C[C@@H]1C(=O)NC1(c2ccccc2)CC1)c1cc(-c2ccc(F)cc2F)on1` [Example 4.053] yielded an IC50 of 1 nM.

On to `CC(NC(=O)[C@@H]1CN(C2CCCC2)CC[C@H]1NC(=O)c1cc(-c2ccc(F)cc2F)on1)c1ccccn1` (some centres unmarked) [Example 2.009], for which inhibition was half-maximal at 10 nM (IC50).

In the case of `C[C@@H](NC(=O)[C@@H]1CN(C2CCCC2)CC[C@H]1NC(=O)c1cc(-c2c(F)cc(F)cc2F)on1)c1ccccn1` (single isomer, unassigned) [Example 1.122b, (3R*,4R*)-1-Cyclopentyl-4-{[5-(2,4,6-trifluoro-phenyl)-isoxazole-3-carbonyl]-amino}-piperidine-3-carboxylic acid ((R)-1-pyridin-2-yl-ethyl)-amide], the IC50 is 17 nM.

Compound `O=C(N[C@H]1CCN(CC2(C(F)F)CC2)C[C@@H]1C(=O)NC1(c2ncccn2)CC1)c1cc(-c2ccc(F)cc2F)on1` [Example 2.067] showed an IC50 of 18 nM.

Consider `O=C(N[C@H]1CCN(CC2CC2)C[C@@H]1C(=O)NC1(c2ncccn2)CC1)c1cc(-c2ccc(F)cc2F)sn1` [Example 7.015, (3S,4S)-1-Cyclopropylmethyl-4-{[5-(2,4-difluoro-phenyl)-isothiazole-3-carbonyl]-amino}-piperidine-3-carboxylic acid (1-pyrimidin-2-yl-cyclopropyl)-amide], for which the IC50 was 201 nM.

Consider `O=C(N[C@@H]1CCN(CC2CC2)C[C@H]1C(=O)NC1(c2ncccn2)CC1)c1cc(-c2cccc(F)c2F)on1` (racemic) [Example 1.199, rac-(3R*,4R*)-1-Cyclopropylmethyl-4-{[5-(2,3-difluoro-phenyl)-isoxazole-3-carbonyl]-amino}-piperidine-3-carboxylic acid (1-pyrimidin-2-yl-cyclopropyl)-amide], for which the IC50 was 273 nM.

`O=C(N[C@@H]1CCN(CC2CC2)C[C@H]1C(=O)NC1(c2ncccn2)CC1)c1cc(-c2c(F)cc(F)cc2F)on1` (single isomer, unassigned) [Example 30.20b, (3R*,4R*)-1-Cyclopropylmethyl-4-{[5-(2,4,6-trifluoro-phenyl)-isoxazole-3-carbonyl]-amino}-piperidine-3-carboxylic acid (1-pyrimidin-2-yl-cyclopropyl)-amide] showed an IC50 of 4 nM.

On to `C[C@@H](NC(=O)[C@@H]1CN(C2CCCCC2)CC[C@H]1NC(=O)c1noc(-c2ccc(F)cc2F)n1)c1cnccn1` [Example 1.16], for which it took 526 nM to reach half-maximal inhibition (IC50).

The compound `O=C(N[C@@H]1CCN(CC2CC2)C[C@H]1C(=O)NC1(c2ncccn2)CC1)c1noc(-c2ccc(F)cc2F)c1F` (single isomer, unassigned) [Example 3.022a, (3R,4R)-1-Cyclopropylmethyl-4-{[5-(2,4-difluoro-phenyl)-4-fluoro-isoxazole-3-carbonyl]-amino}-piperidine-3-carboxylic acid (1-pyrimidin-2-yl-cyclopropyl)-amide or (3S,4S)-1-cyclopropylmethyl-4-{[5-(2,4-difluoro-phenyl)-4-fluoro-isoxazole-3-carbonyl]-amino}-piperidine-3-carboxylic acid (1-pyrimidin-2-yl-cyclopropyl)-amide] returned an IC50 of 25 nM.

Compound `O=C(N[C@H]1CCN(CC2CC2)C[C@@H]1C(=O)NC1(c2ncccn2)CC1)c1cn(-c2c(F)cc(F)cc2F)nn1` [Example 7.012, (3S,4S)-1-Cyclopropylmethyl-4-{[1-(2,4,6-trifluoro-phenyl)-1H-[1,2,3]triazole-4-carbonyl]-amino}-piperidine-3-carboxylic acid (1-pyrimidin-2-yl-cyclopropyl)-amide] registered an IC50 of 356 nM.

With `O=C(N[C@@H]1CCN(CC2CC2)C[C@H]1C(=O)NC1(c2ncccn2)CC1)c1cc(-c2ccc(F)cn2)on1` (racemic) [Example 1.196, rac-(3R*,4R*)-1-Cyclopropylmethyl-4-{[5-(5-fluoro-pyridin-2-yl)-isoxazole-3-carbonyl]-amino}-piperidine-3-carboxylic acid (1-pyrimidin-2-yl-cyclopropyl)-amide], the IC50 worked out at 575 nM.

Take `COCC(C)(C)NC(=O)[C@@H]1CN(C2CCCC2)CC[C@H]1NC(=O)c1cc(-c2ccc(F)cc2F)no1` (racemic) [Example 1.116, rac-(3R*,4R*)-1-Cyclopentyl-4-{[3-(2,4-difluoro-phenyl)-isoxazole-5-carbonyl]-amino}-piperidine-3-carboxylic acid (2-methoxy-1,1-dimethyl-ethyl)-amide]: the IC50 was found to be 614 nM.

Compound `CN(CCc1ccccc1)C(=O)[C@@H]1CN(C2CCCC2)CC[C@H]1NC(=O)c1cc(-c2ccc(F)cc2F)on1` [Example 2.005] gave an IC50 of 25 nM.

`CC(NC(=O)[C@@H]1CN(C2CCCCC2)CC[C@H]1NC(=O)c1cc(-c2ccc(F)cc2F)on1)C(F)F` (relative stereo) [Example 1.077, (3R*,4R*)-1-Cyclohexyl-4-{[5-(2,4-difluoro-phenyl)-isoxazole-3-carbonyl]-amino}-piperidine-3-carboxylic acid ((1RS)-2,2-difluoro-1-methyl-ethyl)-amide] gave an IC50 of 443 nM.

Regarding `CN(C)C(=O)[C@@H]1CN(CC2CCC2)CC[C@H]1NC(=O)c1cc(-c2ccc(F)cc2F)on1` [Example 2.038], the IC50 was 99 nM.

Take `C[C@@H](NC(=O)[C@@H]1CN(CC2CC2)CC[C@H]1NC(=O)c1cc(-c2ccc(F)cc2F)no1)c1ccccn1` (relative stereo) [Example 1.154, (3R*,4R*)-1-Cyclopropylmethyl-4-{[3-(2,4-difluoro-phenyl)-isoxazole-5-carbonyl]-amino}-piperidine-3-carboxylic acid ((R)-1-pyridin-2-yl-ethyl)-amide]: 54 nM corresponded to half-maximal inhibition (IC50).

`O=C(N[C@H]1CCN(C2CCC2)C[C@@H]1C(=O)NC1(c2ncccc2F)CC1)c1cc(-c2ccc(F)cc2F)on1` [Example 4.082] registered an IC50 of 20 nM.

Regarding `CN(C)C(=O)[C@@H]1CN(C2CCC(F)CC2)CC[C@H]1NC(=O)c1cc(-c2ccc(F)cc2F)on1` (some centres unmarked) [Example 2.026], the IC50 is 249 nM.

Take `CN(CC1COC1)C(=O)[C@@H]1CN(C2CCCCC2)CC[C@H]1NC(=O)c1cc(-c2ccc(F)cc2F)on1` (racemic) [Example 1.039, rac-(3R*,4R*)-1-Cyclohexyl-4-{[5-(2,4-difluoro-phenyl)-isoxazole-3-carbonyl]-amino}-piperidine-3-carboxylic acid methyl-oxetan-3-ylmethyl-amide]: half-maximal inhibition (IC50) was put at 492 nM.

On to `O=C(N[C@@H]1CCN(C2CCCCC2)C[C@H]1C(=O)NCc1cccnc1)c1cc(-c2ccc(F)cc2F)on1` (racemic) [Example 1.048, rac-(3R*,4R*)-1-Cyclohexyl-4-{[5-(2,4-difluoro-phenyl)-isoxazole-3-carbonyl]-amino}-piperidine-3-carboxylic acid (pyridin-3-ylmethyl)-amide], for which the IC50 turned out to be 275 nM.

`COCC(C)(C)NC(=O)[C@@H]1CN(C2CCCCC2)CC[C@H]1NC(=O)c1cc(-c2c(F)cc(F)cc2F)on1` (single isomer, unassigned) [Example 1.111a, (3R*,4R*)-1-Cyclohexyl-4-{[5-(2,4,6-trifluoro-phenyl)-isoxazole-3-carbonyl]-amino}-piperidine-3-carboxylic acid (2-methoxy-1,1-dimethyl-ethyl)-amide] registered an IC50 of 944 nM.

The compound `CC(NC(=O)[C@@H]1CN(CC2CC2)CC[C@H]1NC(=O)c1cc(-c2ccc(F)cc2F)on1)c1ncccn1` (some centres unmarked) [Example 4.080b] came in with an IC50 of 15 nM.
